From ChEMBL document CHEMBL4024724, “Synthesis of new 3-(2-mercapto-4-oxo-4H-quinazolin-3-yl)-benzenesulfonamides with strong inhibition properties against the tumor associated carbonic anhydrases IX and XII” (Bioorg Med Chem, 2017)

The compounds below were run against Carbonic anhydrase 9 (Homo sapiens, UniProt Q16790) (assay: Inhibition of recombinant human carbonic anhydrase 9 incubated for 15 mins prior to testing by stopped flow CO2 hydration assay).
In the case of `COc1ccc2nc(S)n(-c3cccc(S(N)(=O)=O)c3)c(=O)c2c1`, the Ki is reported as 13 nM. Work on `COc1cc2c(=O)n(-c3cccc(S(N)(=O)=O)c3)c(S)nc2c(OC)c1OC` yielded a Ki of 20.1 nM. In the case of `Cc1ccc2nc(S)n(-c3cccc(S(N)(=O)=O)c3)c(=O)c2c1`, the Ki is reported as 58.9 nM. `NS(=O)(=O)c1cccc(-n2c(S)nc3ccccc3c2=O)c1` showed a Ki of 76.1 nM. In the case of `COc1cc2nc(S)n(-c3cccc(S(N)(=O)=O)c3)c(=O)c2cc1OC`, the Ki is reported as 19.8 nM. `NS(=O)(=O)c1cccc(-n2c(S)nc3cc(Br)ccc3c2=O)c1` gave a Ki of 16.8 nM. `NS(=O)(=O)c1cccc(-n2c(S)nc3cc(F)ccc3c2=O)c1` gave a Ki of 2.7 nM. In the case of `NS(=O)(=O)c1cccc(-n2c(S)nc3ccc(F)cc3c2=O)c1`, the Ki is reported as 4.4 nM. `NS(=O)(=O)c1cccc(-n2c(S)nc3c(Br)cccc3c2=O)c1` was tested, and the Ki was 4 nM. For `NS(=O)(=O)c1cccc(-n2c(S)nc3cc(Cl)ccc3c2=O)c1`, the Ki was 15.4 nM. `COc1ccc2c(=O)n(-c3cccc(S(N)(=O)=O)c3)c(S)nc2c1` gave a Ki of 25 nM. `Cc1cccc2c(=O)n(-c3cccc(S(N)(=O)=O)c3)c(S)nc12` showed a Ki of 25.2 nM. For `NS(=O)(=O)c1cccc(-n2c(S)nc3ccc(Cl)cc3c2=O)c1`, the Ki was 45.1 nM. `COc1cccc2c(=O)n(-c3cccc(S(N)(=O)=O)c3)c(S)nc12` was tested, and the Ki was 15.6 nM. In the case of `NS(=O)(=O)c1cccc(-n2c(S)nc3ccc(I)cc3c2=O)c1`, the Ki is reported as 1.5 nM. `Cc1cc2nc(S)n(-c3cccc(S(N)(=O)=O)c3)c(=O)c2cc1C` was tested, and the Ki was 34.5 nM. Compound `NS(=O)(=O)c1cccc(-n2c(S)nc3c(Cl)cccc3c2=O)c1` has a Ki of 9.5 nM.
